Experimental data as given in patent US6572603B1, “Vitamin d solution holder and containers for transfusions” (Otsuka Pharmaceutical Factory, Inc., priority 1998, dated 2003).

Key:
Format in all cases: physicochemical
[1] = Vitamin content of transfusion products of Examples 1 and 2 after four-month storage
Protocol: In a holder produced from a polyethylene film having a thickness of 30 μm, solution (C) (4 ml) was charged and the inlet was melt-sealed, to thereby obtain a holder for the solution containing vitamin D3. The surface area of a solution-holding portion of the holder was 16 cm^2 and the volume of polyethylene constituting the solution-holding portion was 0.048 cm^3.
In a polyethylene-made two-compartment container (see FIG. 2), the above-described holder for vitamin D3 solution had been previously attached to one of the compartments. Solution (A) (600 ml) and solution (B) (300 ml) were charged into two compartments separately in an atmosphere replaced with nitrogen, and the container was sealed. Subsequently, the container was subjected to autoclaving through a customary method, to thereby obtain a transfusion product. The transfusion product was wrapped in a light-shielding nylon multi-layer bag together with a deoxidizing agent (trade name: Ageless, product of Mitsubishi Gas Chem. Co., Inc.).
In the same manner as in Example 1, solution (A), solution (B), and solution (C), having the compositions shown in Table 2, were prepared, and these solutions were charged into a holder and two compartments of a transfusion fluid container as described in Example 1. Subsequently, the container was subjected to autoclaving, to thereby obtain a transfusion product. […]

[2] = Vitamin contents in transfusion fluid containers of Examples 4 and 5 after autoclaving and 40° C. four-month storage, bioassay (vitamin B12, biotin) or HPLC (other vitamins)
Protocol: In a holder produced from a three-layered film (the thickness of each layer: 10 μm) in which the outer and the inner layers are made of polyethylene and the intermediate layer is made of ethylene.tetracyclododecene copolymer (trade name: Apel, product of Mitsui Chemicals, Inc.), solution (C) (4 ml) was charged and the inlet was melt-sealed. In a two-compartment container, the prepared holder was attached to one of the compartments. […] The above-described transfusion fluid containers in Examples 4 and 5 were allowed to stand at 40° C. for four months after autoclaving. Thereafter, the contents of vitamins in the containers were measured through a bioassay according to Pharmacopoeia of Japan (for vitamin B12 and biotin) or through HPLC (for other vitamins). The content of each vitamin is represented by a percentage (%) of the initially incorporated amount.

[3] = Vitamin content of solution (C) in polyolefin holders after autoclaving and storage at 40° C. for four months, measured through HPLC (Example 3)
Protocol: Solution (C) (4 ml) prepared in Example 1 was charged into each of holders made of the materials shown in Table 3, to thereby obtain a holder which contains a solution of vitamin D3. Each of these holders containing a solution of vitamin D3 was subjected to autoclaving and wrapped in a nylon multi-layered-film bag together with a deoxidizing agent (trade name: Ageless, product of Mitsubishi Gas Chem. Co., Inc.). The thus-wrapped holders were allowed to stand at 40° C. for four months. Thereafter, the content of each vitamin in each holder was measured through HPLC. The content of each vitamin is represented by a percentage (%) of the initially incorporated amount.

C=C1CC[C@H](O)C/C1=C/C=C1\CCC[C@]2(C)[C@@H]([C@H](C)CCCC(C)C)CC[C@@H]12 [Vitamin D3, cholecalciferol]
Vitamin content after storage (acceptable range ≧80%) [1]: ≥ 80%
Vitamin content, percentage (%) of the initially incorporated amount ([2]; Example 4 transfusion fluid container, 40° C., 4 months): 88.7%
Vitamin content, percentage (%) of the initially incorporated amount ([2]; Example 4 transfusion fluid container, immediately after sterilization): 89.8%
Vitamin content, percentage (%) of the initially incorporated amount ([2]; Example 5 transfusion fluid container, 40° C., 4 months): 89.6%
Vitamin content, percentage (%) of the initially incorporated amount ([2]; Example 5 transfusion fluid container, immediately after sterilization): 90.1%
Vitamin content (%) of initially incorporated amount ([3]; holder No. 1, polyethylene, 30 μm, resin 7.4 cm^3 per μmol vitamin D, 40° C., 4 months): 86.2%
Vitamin content (%) of initially incorporated amount ([3]; holder No. 1, polyethylene, 30 μm, resin 7.4 cm^3 per μmol vitamin D, after sterilization): 95.4%
Vitamin content (%) of initially incorporated amount ([3]; holder No. 2, polyethylene, 100 μm, resin 18.5 cm^3 per μmol vitamin D, 40° C., 4 months): 81.3%
Vitamin content (%) of initially incorporated amount ([3]; holder No. 2, polyethylene, 100 μm, resin 18.5 cm^3 per μmol vitamin D, after sterilization): 94.6%
Vitamin content (%) of initially incorporated amount ([3]; holder No. 3, polypropylene, 30 μm, resin 7.4 cm^3 per μmol vitamin D, 40° C., 4 months): 85.8%
Vitamin content (%) of initially incorporated amount ([3]; holder No. 3, polypropylene, 30 μm, resin 7.4 cm^3 per μmol vitamin D, after sterilization): 96.2%
Vitamin content (%) of initially incorporated amount ([3]; holder No. 4, polyethylene, 250 μm, resin 123.2 cm^3 per μmol vitamin D, 40° C., 4 months): 66.3%
Vitamin content (%) of initially incorporated amount ([3]; holder No. 4, polyethylene, 250 μm, resin 123.2 cm^3 per μmol vitamin D, 40° C., 4 months, listed as vitamin D3): fell outside the acceptable range
Vitamin content (%) of initially incorporated amount ([3]; holder No. 4, polyethylene, 250 μm, resin 123.2 cm^3 per μmol vitamin D, after sterilization): 89.8%
Vitamin content (%) of initially incorporated amount ([3]; holder No. 5, polypropylene, 250 μm, resin 123.2 cm^3 per μmol vitamin D, 40° C., 4 months): 69.1%
Vitamin content (%) of initially incorporated amount ([3]; holder No. 5, polypropylene, 250 μm, resin 123.2 cm^3 per μmol vitamin D, 40° C., 4 months, listed as vitamin D3): fell outside the acceptable range
Vitamin content (%) of initially incorporated amount ([3]; holder No. 5, polypropylene, 250 μm, resin 123.2 cm^3 per μmol vitamin D, after sterilization): 87.5%
